Reference: article PMC10444810, “Induction of open-form bile canaliculus formation by hepatocytes for evaluation of biliary drug excretion” (Communications Biology, 2023)
Several values for one entry are separate records, joined by “and”; a condition that tells them apart may be missing. Identical values can stand only once.

What was measured:
Type in all cases: in vitro ADME
Conditions in all cases: for Enzyme activity, Mean: mean of Well-1 to Well-4
CYP2B6 = molecular target: T1, CYP2B6 (Homo sapiens, UniProt P20813); experiment: Metabolic assay, cocktail substrate method (bupropion to hydroxybupropion)
T1 construct: host or cells: PXB-cells (icHep: JFC, HUM181001B; sandwich culture: JFC)
T1 sequence (P20813 1-491): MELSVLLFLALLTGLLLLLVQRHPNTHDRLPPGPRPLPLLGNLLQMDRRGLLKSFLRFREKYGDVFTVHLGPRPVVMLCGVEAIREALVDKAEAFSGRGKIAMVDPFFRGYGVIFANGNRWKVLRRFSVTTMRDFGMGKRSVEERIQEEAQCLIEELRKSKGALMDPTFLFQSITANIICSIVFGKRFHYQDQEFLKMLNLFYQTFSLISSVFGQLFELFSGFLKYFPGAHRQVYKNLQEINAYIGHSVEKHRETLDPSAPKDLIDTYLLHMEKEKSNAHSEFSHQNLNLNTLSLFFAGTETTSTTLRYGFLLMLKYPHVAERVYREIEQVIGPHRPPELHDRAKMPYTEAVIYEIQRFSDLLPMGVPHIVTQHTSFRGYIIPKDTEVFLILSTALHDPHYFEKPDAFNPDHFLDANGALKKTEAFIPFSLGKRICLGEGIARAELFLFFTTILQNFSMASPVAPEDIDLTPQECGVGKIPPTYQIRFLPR
Description: (§1) The metabolic activity of icHep and sandwich-cultured PXB-cells was measured using the cocktail substrate method of drug-metabolizing enzymes. The components of the cocktail are summarized in Supplementary Table 1. Assays were initiated by treating cells with TB containing cocktail substrates. Time point of each substrate was set when a linear increase in its metabolite production was observed. Concentrations of metabolites produced in the medium were measured by liquid chromatography-mass spectrometry (LC-MS/MS).

CYP3A4 = molecular target: T2, CYP3A4 (Homo sapiens, UniProt P08684); experiment: Metabolic assay, cocktail substrate method (midazolam to 1’-hydroxymidazolam)
T2 construct: host or cells: PXB-cells (icHep: JFC, HUM181001B; sandwich culture: JFC)
Description: as §1

CYP2E1 = molecular target: T3, CYP2E1 (Homo sapiens, UniProt P05181); experiment: Metabolic assay, cocktail substrate method (chlorzoxazone to 6’-hydroxychlorzoxazone)
T3 construct: host or cells: PXB-cells (icHep: JFC, HUM181001B; sandwich culture: JFC)
Description: as §1

[1] = PXB-cells (JFC), incubation time 15 min, single wells
[2] = PXB-cells (JFC), incubation time 45 min, single wells
[3] = PXB-cells (JFC), incubation time 60 min, single wells
[4] = PXB-cells (JFC), incubation time 90 min, single wells
[5] = icHep (HUM18100B), incubation time 15 min, single wells
[6] = icHep (HUM18100B), incubation time 30 min, single wells
[7] = icHep (HUM18100B), incubation time 45 min, single wells
[8] = icHep (HUM18100B), incubation time 60 min, single wells
[9] = icHep (HUM18100B), incubation time 90 min, single wells
[10] = icHep (HUM18100B), rate per single well
[11] = icHep (JFC), incubation time 15 min, single wells
[12] = icHep (JFC), incubation time 30 min, single wells
[13] = icHep (JFC), incubation time 45 min, single wells
[14] = icHep (JFC), incubation time 60 min, single wells
[15] = icHep (JFC), incubation time 90 min, single wells
[16] = icHep (JFC), rate per single well
[17] = PXB-cells (JFC), incubation time 30 min, single wells
[18] = PXB-cells (JFC), rate per single well

T3 sequence (P05181 whole entry): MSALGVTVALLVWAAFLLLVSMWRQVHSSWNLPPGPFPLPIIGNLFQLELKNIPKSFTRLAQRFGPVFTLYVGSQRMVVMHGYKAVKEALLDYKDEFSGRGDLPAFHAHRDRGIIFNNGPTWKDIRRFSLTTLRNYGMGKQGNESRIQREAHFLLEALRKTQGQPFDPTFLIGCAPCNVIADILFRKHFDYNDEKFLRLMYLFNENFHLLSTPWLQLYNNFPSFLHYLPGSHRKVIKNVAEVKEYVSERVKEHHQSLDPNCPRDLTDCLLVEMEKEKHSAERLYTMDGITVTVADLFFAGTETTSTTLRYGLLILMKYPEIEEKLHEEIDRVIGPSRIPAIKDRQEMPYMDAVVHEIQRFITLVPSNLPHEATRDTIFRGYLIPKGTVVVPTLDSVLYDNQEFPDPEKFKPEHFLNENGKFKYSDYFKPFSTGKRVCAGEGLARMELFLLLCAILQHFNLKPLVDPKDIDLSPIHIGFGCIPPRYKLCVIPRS
T2 sequence (P08684 whole entry): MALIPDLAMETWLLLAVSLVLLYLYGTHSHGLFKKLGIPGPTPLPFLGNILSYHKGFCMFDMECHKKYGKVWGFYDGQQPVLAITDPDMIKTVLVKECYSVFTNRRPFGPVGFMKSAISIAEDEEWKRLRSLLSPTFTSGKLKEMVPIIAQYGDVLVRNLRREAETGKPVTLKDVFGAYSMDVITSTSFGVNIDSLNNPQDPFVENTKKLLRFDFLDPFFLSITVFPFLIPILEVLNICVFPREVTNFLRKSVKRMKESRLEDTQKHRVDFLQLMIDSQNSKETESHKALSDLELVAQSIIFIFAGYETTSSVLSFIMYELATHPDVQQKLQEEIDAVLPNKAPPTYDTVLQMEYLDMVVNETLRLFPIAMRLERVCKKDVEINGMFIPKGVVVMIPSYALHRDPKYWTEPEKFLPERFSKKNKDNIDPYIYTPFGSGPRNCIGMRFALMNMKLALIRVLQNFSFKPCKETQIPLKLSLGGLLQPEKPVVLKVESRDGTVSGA

With `C[C@H]1NC(C)(C)CO[C@]1(O)c1cccc(Cl)c1` [Hydroxybupropion] the Enzyme activity (CYP2B6; [1]) was 28.7722 pmol/106 cells and 21.7302 pmol/106 cells and 27.8435 pmol/106 cells and 35.831 pmol/106 cells, the Enzyme activity (CYP2B6; [2]) was 59.3541 pmol/106 cells and 57.6847 pmol/106 cells and 69.4473 pmol/106 cells and 46.5889 pmol/106 cells and the Enzyme activity (CYP2B6; [3]) was 62.0864 pmol/106 cells and 73.8816 pmol/106 cells and 59.3241 pmol/106 cells and 58.6637 pmol/106 cells. For the same compound, the Enzyme activity (CYP2B6; [4]) was 76.5226 pmol/106 cells and 51.4054 pmol/106 cells and 51.8001 pmol/106 cells and 50.3819 pmol/106 cells, the “Enzyme activity, Mean” value (CYP2B6; PXB-cells (JFC)) was 0.991 pmol/min/106 cells and the Enzyme activity (CYP2B6; [5]) was 25.5794 pmol/106 cells and 30.4047 pmol/106 cells and 24.7422 pmol/106 cells and 24.915 pmol/106 cells. For the same compound, the Enzyme activity (CYP2B6; [6]) was 35.9071 pmol/106 cells and 54.335 pmol/106 cells and 43.958 pmol/106 cells and 62.1937 pmol/106 cells, the Enzyme activity (CYP2B6; [7]) was 67.877 pmol/106 cells and 59.438 pmol/106 cells and 65.4881 pmol/106 cells and 59.5632 pmol/106 cells and the Enzyme activity (CYP2B6; [8]) was 76.2731 pmol/106 cells and 66.7099 pmol/106 cells and 66.2746 pmol/106 cells and 64.1847 pmol/106 cells. For the same compound, the Enzyme activity (CYP2B6; [9]) was 84.2201 pmol/106 cells and 81.8175 pmol/106 cells and 75.5651 pmol/106 cells and 70.6836 pmol/106 cells, the “Enzyme activity, Mean” value (CYP2B6; icHep (HUM18100B)) was 1.22 pmol/min/106 cells and the Enzyme activity (CYP2B6; [10]) was 1.41 pmol/min/106 cells and 0.968 pmol/min/106 cells and 1.36 pmol/min/106 cells and 1.15 pmol/min/106 cells. For the same compound, the Enzyme activity (CYP2B6; [11]) was 26.9509 pmol/106 cells and 26.6361 pmol/106 cells and 28.1971 pmol/106 cells and 21.5678 pmol/106 cells, the Enzyme activity (CYP2B6; [12]) was 50.8052 pmol/106 cells and 52.8459 pmol/106 cells and 41.4458 pmol/106 cells and 41.1487 pmol/106 cells and the Enzyme activity (CYP2B6; [13]) was 61.1962 pmol/106 cells and 63.9863 pmol/106 cells and 63.4142 pmol/106 cells and 59.0445 pmol/106 cells. For the same compound, the Enzyme activity (CYP2B6; [14]) was 56.6821 pmol/106 cells and 56.5302 pmol/106 cells and 54.8514 pmol/106 cells and 60.04 pmol/106 cells, the Enzyme activity (CYP2B6; [15]) was 69.6732 pmol/106 cells and 73.6155 pmol/106 cells and 56.0547 pmol/106 cells and 49.9876 pmol/106 cells and the “Enzyme activity, Mean” value (CYP2B6; icHep (JFC)) was 1.20 pmol/min/106 cells. The Enzyme activity (CYP2B6; [16]) was 1.14 pmol/min/106 cells and 1.25 pmol/min/106 cells and 1.17 pmol/min/106 cells.

For `OCc1ncc2n1-c1ccc(Cl)cc1C(c1ccccc1F)=NC2` [1'-hydroxymidazolam], the Enzyme activity (CYP3A4; [1]) was 85.9964 pmol/106 cells and 107.28 pmol/106 cells and 107.269 pmol/106 cells and 94.4354 pmol/106 cells, the Enzyme activity (CYP3A4; [17]) was 157.896 pmol/106 cells and 182.793 pmol/106 cells and 221.326 pmol/106 cells and 195.956 pmol/106 cells and the Enzyme activity (CYP3A4; [2]) was 229.127 pmol/106 cells and 265.395 pmol/106 cells and 205.135 pmol/106 cells and 181.378 pmol/106 cells. The Enzyme activity (CYP3A4; [3]) was 216.024 pmol/106 cells and 232.078 pmol/106 cells and 207.606 pmol/106 cells and 244.165 pmol/106 cells, the Enzyme activity (CYP3A4; [4]) was 251.177 pmol/106 cells and 288.431 pmol/106 cells and 316.537 pmol/106 cells and 214.43 pmol/106 cells and the “Enzyme activity, Mean” value (CYP3A4; PXB-cells (JFC)) was 6.05 pmol/min/106 cells. For the same compound, the Enzyme activity (CYP3A4; [18]) was 4.79 pmol/min/106 cells and 5.03 pmol/min/106 cells and 7.60 pmol/min/106 cells and 6.77 pmol/min/106 cells, the Enzyme activity (CYP3A4; [5]) was 124.221 pmol/106 cells and 126.279 pmol/106 cells and 141.412 pmol/106 cells and 115.91 pmol/106 cells and the Enzyme activity (CYP3A4; [6]) was 259.113 pmol/106 cells and 258.447 pmol/106 cells and 251.469 pmol/106 cells and 277.435 pmol/106 cells. For the same compound, the Enzyme activity (CYP3A4; [7]) was 382.492 pmol/106 cells and 333.832 pmol/106 cells and 305.042 pmol/106 cells and 320.283 pmol/106 cells, the Enzyme activity (CYP3A4; [8]) was 439.172 pmol/106 cells and 380.966 pmol/106 cells and 417.242 pmol/106 cells and 349.083 pmol/106 cells and the Enzyme activity (CYP3A4; [9]) was 536.397 pmol/106 cells and 514.134 pmol/106 cells and 491.294 pmol/106 cells and 551.51 pmol/106 cells. For the same compound, the “Enzyme activity, Mean” value (CYP3A4; icHep (HUM18100B)) was 8.98 pmol/min/106 cells, the Enzyme activity (CYP3A4; [10]) was 8.99 pmol/min/106 cells and 8.81 pmol/min/106 cells and 7.34 pmol/min/106 cells and 10.8 pmol/min/106 cells and the Enzyme activity (CYP3A4; [11]) was 99.4818 pmol/106 cells and 103.678 pmol/106 cells and 120.741 pmol/106 cells and 92.847 pmol/106 cells. For the same compound, the Enzyme activity (CYP3A4; [12]) was 252.368 pmol/106 cells and 242.904 pmol/106 cells and 185.11 pmol/106 cells and 190.476 pmol/106 cells, the Enzyme activity (CYP3A4; [13]) was 266.706 pmol/106 cells and 248.159 pmol/106 cells and 239.281 pmol/106 cells and 225.504 pmol/106 cells and the Enzyme activity (CYP3A4; [14]) was 273.171 pmol/106 cells and 272.05 pmol/106 cells and 245.256 pmol/106 cells and 275.122 pmol/106 cells. For the same compound, the Enzyme activity (CYP3A4; [15]) was 330.978 pmol/106 cells and 294.591 pmol/106 cells and 323.573 pmol/106 cells and 259.768 pmol/106 cells and the “Enzyme activity, Mean” value (CYP3A4; icHep (JFC)) was 7.57 pmol/min/106 cells.

`O=c1[nH]c2cc(Cl)c(O)cc2o1` [6'-hydroxychlorzoxazone] was tested, and the Enzyme activity (CYP2E1; [1]) was 2.306 pmol/106 cells and 2.95 pmol/106 cells and 3.355 pmol/106 cells and 2.895 pmol/106 cells, the Enzyme activity (CYP2E1; [17]) was 5.44 pmol/106 cells and 5.421 pmol/106 cells and 6.357 pmol/106 cells and 6.2485 pmol/106 cells and the Enzyme activity (CYP2E1; [2]) was 6.903 pmol/106 cells and 8.029 pmol/106 cells and 8.51 pmol/106 cells and 7.254 pmol/106 cells. For the same compound, the Enzyme activity (CYP2E1; [3]) was 7.3761 pmol/106 cells and 7.959 pmol/106 cells and 8.112 pmol/106 cells and 7.339 pmol/106 cells, the Enzyme activity (CYP2E1; [4]) was 7.477 pmol/106 cells and 10.4196 pmol/106 cells and 8.199 pmol/106 cells and 8.482 pmol/106 cells and the “Enzyme activity, Mean” value (CYP2E1; PXB-cells (JFC)) was 0.160 pmol/min/106 cells. The Enzyme activity (CYP2E1; [18]) was 0.153 pmol/min/106 cells and 0.169 pmol/min/106 cells and 0.172 pmol/min/106 cells and 0.145 pmol/min/106 cells, the Enzyme activity (CYP2E1; [5]) was 10.0765 pmol/106 cells and 9.906 pmol/106 cells and 11.3983 pmol/106 cells and 9.755 pmol/106 cells and the Enzyme activity (CYP2E1; [6]) was 22.452 pmol/106 cells and 22.028 pmol/106 cells and 22.1618 pmol/106 cells and 20.005 pmol/106 cells. The Enzyme activity (CYP2E1; [7]) was 33.1164 pmol/106 cells and 28.7079 pmol/106 cells and 30.6951 pmol/106 cells and 27.4528 pmol/106 cells, the Enzyme activity (CYP2E1; [8]) was 42.0307 pmol/106 cells and 37.5801 pmol/106 cells and 42.224 pmol/106 cells and 33.7793 pmol/106 cells and the Enzyme activity (CYP2E1; [9]) was 67.3851 pmol/106 cells and 64.4144 pmol/106 cells and 55.8641 pmol/106 cells and 56.1231 pmol/106 cells. For the same compound, the “Enzyme activity, Mean” value (CYP2E1; icHep (HUM18100B)) was 0.628 pmol/min/106 cells, the Enzyme activity (CYP2E1; [10]) was 0.710 pmol/min/106 cells and 0.598 pmol/min/106 cells and 0.673 pmol/min/106 cells and 0.530 pmol/min/106 cells and the Enzyme activity (CYP2E1; [11]) was 2.771 pmol/106 cells and 3.158 pmol/106 cells and 3.038 pmol/106 cells and 3.018 pmol/106 cells. For the same compound, the Enzyme activity (CYP2E1; [12]) was 4.046 pmol/106 cells and 4.392 pmol/106 cells and 5.788 pmol/106 cells and 6.302 pmol/106 cells, the Enzyme activity (CYP2E1; [13]) was 8.107 pmol/106 cells and 7.33 pmol/106 cells and 8.049 pmol/106 cells and 8.219 pmol/106 cells and the Enzyme activity (CYP2E1; [14]) was 8.619 pmol/106 cells and 8.336 pmol/106 cells and 6.8 pmol/106 cells and 10.6833 pmol/106 cells. The Enzyme activity (CYP2E1; [15]) was 10.5593 pmol/106 cells and 9.487 pmol/106 cells and 8.477 pmol/106 cells and 10.9673 pmol/106 cells, the “Enzyme activity, Mean” value (CYP2E1; icHep (JFC)) was 0.164 pmol/min/106 cells and the Enzyme activity (CYP2E1; [16]) was 0.178 pmol/min/106 cells and 0.139 pmol/min/106 cells and 0.167 pmol/min/106 cells and 0.173 pmol/min/106 cells.
